# Measured values from PubChem BioAssay (NCI).
#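 Cells were grown in 96-well plates and exposed to each compound for 48 hours at five concentrations; endpoints were interpolated linearly between bracketing concentrations, or set to the highest concentration if not reached. GI50 marks 50% less growth. TGI: concentration producing complete growth inhibition.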
# How the values were obtained:
# Experiment in all cases: DTP human tumour cell line panel, 48 h
# [1] = test system: RXF 393 renal
# [2] = test system: PC-3 prostate
# [3] = test system: BT-549 breast
# [4] = test system: SK-MEL-28 melanoma
# [5] = test system: LOX IMVI melanoma
# [6] = test system: HL-60(TB) leukemia
# [7] = test system: SR leukemia
# [8] = test system: SN12C renal
# [9] = test system: KM12 colon
# [10] = test system: MALME-3M melanoma
# [11] = test system: NCI-H226 lung
# [12] = test system: A549 NSCLC
# [13] = test system: U251 CNS
# [14] = test system: MOLT-4 leukemia
# [15] = test system: IGROV1 ovarian
# [16] = test system: COLO 205 colon
# [17] = test system: M14 melanoma
# [18] = test system: NCI-H522 lung
# [19] = test system: ACHN renal
# [20] = test system: MCF7 breast
# [21] = test system: EKVX NSCLC
# [22] = test system: MDA-MB-468 breast
# [23] = test system: OVCAR-8 ovarian
# [24] = test system: HT29 colon
# [25] = test system: HCT-15 colon
# [26] = test system: RPMI-8226 leukemia
# [27] = test system: HCT-116 colon
# [28] = test system: CCRF-CEM leukemia
# [29] = test system: SNB-75 CNS
# [30] = test system: SF-295 CNS
# [31] = test system: DU-145 prostate
# [32] = test system: HOP-92 NSCLC
# [33] = test system: SF-268 CNS
# [34] = test system: T-47D breast
# [35] = test system: NCI-H23 lung
# [36] = test system: HS 578T breast
# [37] = test system: OVCAR-4 ovarian
# [38] = test system: HOP-62 NSCLC
# [39] = test system: UACC-257 melanoma
# [40] = test system: K-562 leukemia
# [41] = test system: OVCAR-5 ovarian
# [42] = test system: TK-10 renal
# [43] = test system: OVCAR-3 ovarian
# [44] = test system: 786-0 renal
# [45] = test system: SK-MEL-2 melanoma
# [46] = test system: NCI-H460 lung
# [47] = test system: MDA-MB-231 breast
# [48] = test system: HCC-2998 colon
# [49] = test system: CAKI-1 renal
# [50] = test system: SW-620 colon
# [51] = test system: NCI/ADR-RES ovarian
# [52] = test system: SK-OV-3 ovarian
# [53] = test system: SF-539 CNS
# [54] = test system: SK-MEL-5 melanoma
# [55] = test system: MDA-MB-435
# [56] = test system: UACC-62 melanoma
# [57] = test system: A498 renal
# [58] = test system: SNB-19 CNS
# [59] = test system: UO-31 renal
structure (smiles),measurement,setting,value
Nc1nc(Nc2ccc(Cl)cc2)n(Cc2cccc(Br)c2)n1,GI50,[1],17 µM
same,TGI,[1],60.5 µM
same,GI50,[2],29.8 µM
same,TGI,[2],> 100 µM
same,GI50,[3],38.8 µM
same,TGI,[3],92 µM
same,GI50,[4],26 µM
same,TGI,[4],> 100 µM
same,GI50,[5],17.2 µM
same,TGI,[5],35.9 µM
same,GI50,[6],24.6 µM
same,TGI,[6],71.8 µM
same,GI50,[7],57.6 µM
same,TGI,[7],> 100 µM
same,GI50,[8],26.2 µM
same,TGI,[8],> 100 µM
same,GI50,[9],33.3 µM
same,TGI,[9],> 100 µM
same,GI50,[10],21.5 µM
same,TGI,[10],71.2 µM
same,GI50,[11],25.3 µM
same,TGI,[11],> 100 µM
same,GI50,[12],32.9 µM
same,TGI,[12],> 100 µM
same,GI50,[13],31.3 µM
same,TGI,[13],> 100 µM
same,GI50,[14],25.6 µM
same,TGI,[14],> 100 µM
same,GI50,[15],30.7 µM
same,TGI,[15],> 100 µM
same,GI50,[16],37.4 µM
same,TGI,[16],> 100 µM
same,GI50,[17],29.5 µM
same,TGI,[17],> 100 µM
same,GI50,[18],18.7 µM
same,TGI,[18],44.5 µM
same,GI50,[19],29.3 µM
same,TGI,[19],> 100 µM
same,GI50,[20],25.1 µM
same,TGI,[20],> 100 µM
same,GI50,[21],25.2 µM
same,TGI,[21],> 100 µM
same,GI50,[22],16.8 µM
same,TGI,[22],45.3 µM
same,GI50,[23],35.7 µM
same,TGI,[23],> 100 µM
same,GI50,[24],35.6 µM
same,TGI,[24],> 100 µM
same,GI50,[25],27 µM
same,TGI,[25],> 100 µM
same,GI50,[26],31.6 µM
same,TGI,[26],> 100 µM
same,GI50,[27],31.3 µM
same,TGI,[27],> 100 µM
same,GI50,[28],36.8 µM
same,TGI,[28],> 100 µM
same,GI50,[29],15.5 µM
same,TGI,[29],60.6 µM
same,GI50,[30],22.6 µM
same,TGI,[30],74.9 µM
same,GI50,[31],41.1 µM
same,TGI,[31],> 100 µM
same,GI50,[32],19.4 µM
same,TGI,[32],63.8 µM
same,GI50,[33],27.9 µM
same,TGI,[33],> 100 µM
same,GI50,[34],30.5 µM
same,TGI,[34],> 100 µM
same,GI50,[35],29 µM
same,TGI,[35],> 100 µM
same,GI50,[36],24.4 µM
same,TGI,[36],96.3 µM
same,GI50,[37],34 µM
same,TGI,[37],> 100 µM
same,GI50,[38],49 µM
same,TGI,[38],> 100 µM
same,GI50,[39],33.6 µM
same,TGI,[39],> 100 µM
same,GI50,[40],28 µM
same,TGI,[40],> 100 µM
same,GI50,[41],22.3 µM
same,TGI,[41],73.5 µM
same,GI50,[42],40 µM
same,TGI,[42],> 100 µM
same,GI50,[43],33.8 µM
same,TGI,[43],> 100 µM
same,GI50,[44],34.9 µM
same,TGI,[44],> 100 µM
same,GI50,[45],18.9 µM
same,TGI,[45],38.1 µM
same,GI50,[46],23.7 µM
same,TGI,[46],57.5 µM
same,GI50,[47],30.5 µM
same,TGI,[47],> 100 µM
same,GI50,[48],27 µM
same,TGI,[48],> 100 µM
same,GI50,[49],25.9 µM
same,TGI,[49],> 100 µM
same,GI50,[50],32.8 µM
same,TGI,[50],> 100 µM
same,GI50,[51],20.2 µM
same,TGI,[51],51.5 µM
same,GI50,[52],34.5 µM
same,TGI,[52],> 100 µM
same,GI50,[53],22.2 µM
same,TGI,[53],62.1 µM
same,GI50,[54],17.4 µM
same,TGI,[54],33.5 µM
same,GI50,[55],19 µM
same,TGI,[55],42.2 µM
same,GI50,[56],18.3 µM
same,TGI,[56],61.1 µM
same,GI50,[57],26.7 µM
same,TGI,[57],85.9 µM
same,GI50,[58],30.7 µM
same,TGI,[58],> 100 µM
same,GI50,[59],21 µM
same,TGI,[59],90.4 µM
